Reference: patent US12559504B2, “Benzotriazole derivative” (UBE CORPORATION, priority 2019, dated 2026)

Tests used:
NQO1 [1] = test: NQO1 enzyme induction test (in vitro) in Hepa1c1c7 cells; assay type: cell-based; conditions: Mus musculus, Hepa-1c1c7, 48 h, concentration to elevate the NQO1 activity by 1.5 times, about 48 hours, read-out: EC150
In short: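 Mouse Hepa1c1c7 cells treated about 48 h with compound (0.1% DMSO final), then lysed. NQO1 activity read as MTT reduction at 540 nm with menadione substrate, 5 min at room temperature, and corrected for cell number by CellTiter-Glo. EC150 is the concentration raising NQO1 activity 1.5-fold.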

[2] = molecular target: T1, GST fusion human Keap1 (amino acid residue: 325-624) protein (Homo sapiens, UniProt Q14145); test: Keap1-Nrf2 binding inhibition test (fluorescence polarization); conditions: compound concentration of 100 nM; read-out: inhibition rate
T1 construct: GST fusion human Keap1 (amino acid residue: 325-624) protein; purchased Protein tech Ag0779
In short: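 Fluorescence polarization with FITC-labelled Nrf2 peptide (FITC-Ahx-LDEETGEFL-NH2) and GST-human Keap1 (325-624) in 20 mM Tris pH 7.5, 150 mM NaCl, 0.05% Tween 20, 5 mM DTT, BSA; 30 min at room temperature, ex 482/em 530 nm. Percent inhibition at 100 nM compound, Keap1-free wells = 100%.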

NQO1 [3] = test: NQO1 expression induction test in mouse kidney (single administration); assay type: in vivo; conditions: Mus musculus, po, 6 h, BALB/c mouse kidney, 6 hours after administration, ratio to control group
In short: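 Female BALB/c mice received a single oral dose of compound in 0.5% methylcellulose, with untreated mice as controls. Six hours later, left-kidney NQO1 mRNA was measured by SYBR real-time RT-PCR normalised to GAPDH. Induction was expressed as the ratio of mean treated to mean control expression.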

[4] = Metabolism test using human liver microsome fractions; assay type: in vitro ADME; conditions: human liver microsomes, test compound 10 μmol/L, NADPH and UDP-glucuronic acid, 37° C.
In short: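 Human or monkey liver microsomes (1 mg protein) with NADPH-regenerating system plus UDP-glucuronic acid/UGT mix, 37 °C; compound at 10 μmol/L final. Samples at 0–30 min quenched in acetonitrile, UV-HPLC; elimination rate (pmol/min/mg-P) from linear slope of residual amount over time.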

T1 sequence (Q14145 325-624): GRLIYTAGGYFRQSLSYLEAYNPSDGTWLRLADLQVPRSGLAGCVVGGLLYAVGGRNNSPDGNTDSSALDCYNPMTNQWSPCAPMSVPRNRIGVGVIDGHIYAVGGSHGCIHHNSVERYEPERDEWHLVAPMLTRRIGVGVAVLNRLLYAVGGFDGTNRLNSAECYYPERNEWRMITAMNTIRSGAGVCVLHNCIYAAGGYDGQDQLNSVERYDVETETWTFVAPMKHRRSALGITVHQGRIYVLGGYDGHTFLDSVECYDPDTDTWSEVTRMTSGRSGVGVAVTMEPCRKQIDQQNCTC

Row | inhibition at 0.1 µM [2] [%] | SMILES | EC (1.5-fold NQO1 activity) (NQO1 [1]) [µM] | fold induction at 20 mg/kg (NQO1 [3]) | Human metabolic rate [4] | fold induction at 30 mg/kg (NQO1 [3])
1 | ≥ 50 | CC[C@@H]1CN(Cc2cc(C(c3ccc4c(nnn4C)c3C)C3(C(=O)O)CCC3)ccc2C)Cc2cc3ncccc3cc2O1 (stereo partly drawn) [Example 84-(b), 1-((1,4-dimethyl-1H-benzo[d][1,2,3]triazol-5-yl) (3-(((R)-2-ethyl-2,3-dihydro-[1,4]oxazepino[7,6-g]quinolin-4 (5H)-yl)methyl)-4-methylphenyl)methyl)cyclobutane-1-carboxylic Acid] | 0.0005 to 0.005 | > 6 | C (150≤metabolic rate<200 pmol/min/mg protein) | 
2 | ≥ 50 | CC[C@@H]1CN(Cc2cc(C(c3ccc4c(nnn4C)c3C)C(C)(C)C(=O)O)ccc2C)Cc2cc3c(cc2O1)OC(C)(C)O3 (stereo partly drawn) [Example 61-(b), 3-(1,4-dimethyl-1H-benzo[d][1,2,3)triazol-5-yl)-3-(3-(((R)-6-ethyl-2,2-dimethyl-6,7-dihydro-(1,3]dioxolo[4′,5′:4,5]benzo[1,2-f][1,4]oxazepin-8(9H)-yl)methyl)-4-methylphenyl)-2,2-dimethylpropanoic Acid] | 0.005 to 0.05 |  | A (metabolic rate<100 pmol/min/mg protein) | 3 to 6
3 | ≥ 50 | CC[C@@H]1CN(Cc2cc(C(c3ccc4c(nnn4C)c3C)C(C)(C)C(=O)O)ccc2C)Cc2cc3ccccc3nc2O1 (stereo partly drawn) [Example 9-(b), 3-(1,4-dimethyl-1H-benzo[d][1,2,3]triazol-5-yl)-3-(3-(((R)-2-ethyl-2,3-dihydro-[1,4]oxazepino[7,6-b]quinolin-4 (5H)-yl)methyl)-4-methylphenyl)-2,2-dimethylpropanoic Acid] | 0.0005 to 0.005 |  | D (200≤metabolic rate<250 pmol/min/me protein) | 3 to 6
4 | ≥ 50 | CC[C@@H]1CN(Cc2cc(C(c3ccc4c(nnn4C)c3C)C(C)(C)C(=O)O)ccc2C)Cc2cc3ncccc3cc2O1 (stereo partly drawn) [Example 12-(b), 3-(1,4-dimethyl-1H-benzo[d][1,2,3]triazol-5-yl)-3-(3-(((R)-2-ethyl-2,3-dihydro-[1,4]oxazepino[7,6-g]quinolin-4 (5H)-yl)methyl)-4-methylphenyl)-2,2-dimethylpropanoic Acid] | 0.0005 to 0.005 |  | D (200≤metabolic rate<250 pmol/min/me protein) | > 6
5 | ≥ 50 | CC[C@@H]1CN(Cc2cc(C(c3ccc4c(nnn4C)c3C)C(C)(C)C(=O)O)ccc2C)Cc2cc3c(cc2O1)S(=O)(=O)CC3 (stereo partly drawn) [Example 74-(b), 3-(1,4-dimethyl-1H-benzo[d][1,2,3]triazol-5-yl)-3-(3-(((R)-2-ethyl-9,9-dioxide-2,3,7,8-tetrahydrothieno[2′,3′:4,5]benzo[1,2-f][1,4]oxazepin-4(5H)-yl)methyl)-4-methylphenyl)-2,2-dimethylpropanoic Acid] | 0.0005 to 0.005 | 3 to 6 | B (100≤metabolic rate<150 pmol/min/mg protein) | 
6 | ≥ 50 | Cc1ccc(C(c2ccc3c(nnn3C)c2C)C(C)(C)C(=O)O)cc1CN1CCOc2cc3cccnc3cc2C1 (stereo not shown) [Example 63-(b), 3-(3-((2,3-dihydro-[1,4]oxazepino[7,6-g]quinolin-4 (5H)-yl)methyl)-4-methylphenyl)-3-(1,4-dimethyl-1H-benzo[d][1,2,3]triazol-5-yl)-2,2-dimethylpropanoic Acid] | 0.005 to 0.05 |  | C (150≤metabolic rate<200 pmol/min/mg protein) | 3 to 6
7 | ≥ 50 | CC[C@@H]1CN(Cc2cc(C(c3ccc4c(nnn4C)c3C)C(C)(C)C(=O)O)ccc2C)Cc2c(ccc3cnn(C)c23)O1 (stereo partly drawn) [Example 21-(b), 3-(1,4-dimethyl-1H-benzo[d][1,2, 3)triazol-5-yl)-3-(3-(((R)-7-ethyl-1-methyl-1,7,8,10-tetrahydro-9H-(1,4]oxazepino[7,6-g]indazol-9-yl)methyl)-4-methylphenyl)-2,2-dimethylpropanoic Acid] | 0.05 to 0.5 |  | D (200≤metabolic rate<250 pmol/min/me protein) | ≤ 3
